Experimental data published in US9062066B2, “Anti-inflammatory compound having inhibitory activity against multiple tyrosine kinases and pharmaceutical composition containing same” (KOREA INSTITUTE OF SCIENCE AND TECHNOLOGY, priority 2010, dated 2015).
Read-outs that look alike come from different tables or passages of the source.

Columns and labels:
[1] = target: c-Src tyrosine kinase (Homo sapiens (Human), UniProt P12931); test: in vitro c-Src tyrosine kinase inhibition (32P-ATP, poly(D4Y)n substrate); assay type: biochemical; conditions: 1 uM compound; for inhibition at 1 µM: read-out: % inhibition against c-Src
Sequence of c-Src tyrosine kinase (P12931 whole entry, looked up): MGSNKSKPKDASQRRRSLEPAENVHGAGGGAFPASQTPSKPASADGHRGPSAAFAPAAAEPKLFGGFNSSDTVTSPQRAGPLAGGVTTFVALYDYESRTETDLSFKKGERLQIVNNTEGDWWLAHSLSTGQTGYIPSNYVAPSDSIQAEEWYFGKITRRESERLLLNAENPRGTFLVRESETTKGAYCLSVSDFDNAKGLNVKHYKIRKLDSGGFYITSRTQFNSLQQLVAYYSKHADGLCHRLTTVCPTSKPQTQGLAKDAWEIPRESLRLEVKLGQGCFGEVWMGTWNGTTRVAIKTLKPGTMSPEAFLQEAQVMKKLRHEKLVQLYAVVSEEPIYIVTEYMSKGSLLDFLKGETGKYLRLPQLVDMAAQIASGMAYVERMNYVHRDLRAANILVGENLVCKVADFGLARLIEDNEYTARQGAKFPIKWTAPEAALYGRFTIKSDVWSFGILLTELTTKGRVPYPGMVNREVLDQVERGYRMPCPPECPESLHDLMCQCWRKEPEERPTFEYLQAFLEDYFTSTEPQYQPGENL

[2] = target: Hck tyrosine kinase (Homo sapiens (Human), UniProt P08631); test: in vitro Hck tyrosine kinase inhibition; assay type: biochemical; conditions: 1 uM compound; for inhibition at 1 µM: read-out: % inhibition against Hck
Sequence of Hck tyrosine kinase (P08631 whole entry): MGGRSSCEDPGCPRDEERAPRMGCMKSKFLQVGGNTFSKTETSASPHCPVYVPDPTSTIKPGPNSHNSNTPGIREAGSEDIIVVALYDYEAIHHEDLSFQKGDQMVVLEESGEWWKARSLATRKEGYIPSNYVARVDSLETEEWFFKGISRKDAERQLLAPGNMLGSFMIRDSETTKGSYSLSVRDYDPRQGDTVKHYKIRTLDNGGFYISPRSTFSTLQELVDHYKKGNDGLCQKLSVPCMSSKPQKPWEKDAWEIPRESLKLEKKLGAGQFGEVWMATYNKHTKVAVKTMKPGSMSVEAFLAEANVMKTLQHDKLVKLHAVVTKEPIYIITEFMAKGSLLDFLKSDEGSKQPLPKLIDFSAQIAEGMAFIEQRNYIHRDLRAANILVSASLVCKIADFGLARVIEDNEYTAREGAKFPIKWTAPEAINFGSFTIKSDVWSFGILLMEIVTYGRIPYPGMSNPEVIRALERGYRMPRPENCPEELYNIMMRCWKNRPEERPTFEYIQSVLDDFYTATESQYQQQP

[3] = target: Fgr tyrosine kinase (Homo sapiens (Human), UniProt P09769); test: in vitro Fgr tyrosine kinase inhibition; assay type: biochemical; conditions: 1 uM compound; for inhibition at 1 µM: read-out: % inhibition against Fgr
Sequence of Fgr tyrosine kinase (P09769 whole entry): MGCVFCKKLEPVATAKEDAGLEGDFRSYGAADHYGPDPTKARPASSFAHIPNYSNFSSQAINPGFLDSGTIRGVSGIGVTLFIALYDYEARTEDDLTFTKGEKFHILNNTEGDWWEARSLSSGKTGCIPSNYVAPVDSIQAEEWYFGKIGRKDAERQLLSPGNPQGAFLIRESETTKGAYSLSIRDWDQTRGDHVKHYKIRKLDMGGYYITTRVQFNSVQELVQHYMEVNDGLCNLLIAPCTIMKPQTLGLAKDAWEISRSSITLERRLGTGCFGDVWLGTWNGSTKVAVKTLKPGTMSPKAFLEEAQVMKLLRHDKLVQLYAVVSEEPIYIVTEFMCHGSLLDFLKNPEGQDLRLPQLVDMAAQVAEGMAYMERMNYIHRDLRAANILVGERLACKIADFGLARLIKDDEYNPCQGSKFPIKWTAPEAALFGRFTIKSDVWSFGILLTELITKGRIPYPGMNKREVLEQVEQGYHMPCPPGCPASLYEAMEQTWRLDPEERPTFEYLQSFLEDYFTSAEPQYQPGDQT

[4] = target: Lyn tyrosine kinase (Homo sapiens (Human), UniProt P07948); test: in vitro Lyn tyrosine kinase inhibition; assay type: biochemical; conditions: 1 uM compound; for inhibition at 1 µM: read-out: % inhibition against Lyn
Sequence of Lyn tyrosine kinase (P07948 whole entry, the tested form may be a part): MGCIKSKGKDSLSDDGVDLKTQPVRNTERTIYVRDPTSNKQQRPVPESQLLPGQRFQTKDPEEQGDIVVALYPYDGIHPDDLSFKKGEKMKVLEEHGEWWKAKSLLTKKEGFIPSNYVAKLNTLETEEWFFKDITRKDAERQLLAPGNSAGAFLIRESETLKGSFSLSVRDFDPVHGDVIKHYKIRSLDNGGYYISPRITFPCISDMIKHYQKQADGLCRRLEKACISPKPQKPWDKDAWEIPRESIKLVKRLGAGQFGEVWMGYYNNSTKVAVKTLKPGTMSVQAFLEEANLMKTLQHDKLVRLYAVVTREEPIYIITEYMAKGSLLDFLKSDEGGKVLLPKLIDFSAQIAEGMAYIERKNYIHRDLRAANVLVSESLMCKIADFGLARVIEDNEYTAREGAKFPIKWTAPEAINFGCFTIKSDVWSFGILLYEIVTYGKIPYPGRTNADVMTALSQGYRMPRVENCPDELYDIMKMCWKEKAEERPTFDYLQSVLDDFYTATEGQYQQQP

[5] = target: DDR1 tyrosine kinase (Homo sapiens (Human), UniProt Q08345); test: in vitro DDR1 tyrosine kinase inhibition (GST-fused kinase domain); assay type: biochemical; conditions: 1 uM compound; for inhibition at 1 µM: read-out: % inhibition against DDR1
Sequence of DDR1 tyrosine kinase (Q08345 610-905): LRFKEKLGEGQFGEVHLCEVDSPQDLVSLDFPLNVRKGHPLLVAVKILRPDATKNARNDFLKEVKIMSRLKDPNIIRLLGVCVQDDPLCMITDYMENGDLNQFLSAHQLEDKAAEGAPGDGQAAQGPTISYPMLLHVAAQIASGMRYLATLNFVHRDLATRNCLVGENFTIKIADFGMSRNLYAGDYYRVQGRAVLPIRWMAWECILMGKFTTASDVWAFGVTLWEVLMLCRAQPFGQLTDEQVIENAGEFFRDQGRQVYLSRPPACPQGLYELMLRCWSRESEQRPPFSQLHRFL

[6] = target: DDR2 tyrosine kinase (Homo sapiens (Human), UniProt Q16832); test: in vitro DDR2 tyrosine kinase inhibition (GST-fused kinase domain); assay type: biochemical; conditions: 1 uM compound; for inhibition at 1 µM: read-out: % inhibition against DDR2
Sequence of DDR2 tyrosine kinase (Q16832 563-849): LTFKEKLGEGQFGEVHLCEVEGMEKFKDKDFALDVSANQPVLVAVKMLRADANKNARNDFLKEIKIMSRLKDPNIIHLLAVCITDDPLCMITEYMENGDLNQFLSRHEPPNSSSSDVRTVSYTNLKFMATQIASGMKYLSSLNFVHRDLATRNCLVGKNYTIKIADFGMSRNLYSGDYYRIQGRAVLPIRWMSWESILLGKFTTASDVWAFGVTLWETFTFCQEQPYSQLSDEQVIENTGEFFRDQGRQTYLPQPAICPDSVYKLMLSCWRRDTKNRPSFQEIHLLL

[7] = system: TNF-α synthesis in J744A.1 macrophages; test: inhibition of TNF-α synthesis in LPS-activated macrophages (ELISA); assay type: cell-based; conditions: Macrophage; 10 μM compound, 100 ng/ml LPS, 6 hours; read-out: Inhibition (%) of TNF-α synthesis
[8] = system: NO synthesis in J744A.1 macrophage; test: inhibition of nitric oxide (NO) synthesis in LPS-activated macrophages (Griess reagent); assay type: cell-based; conditions: read-out: Inhibition (%) of NO synthesis

Row | SMILES | inhibition at 1 µM [1] | inhibition at 1 µM [2] | inhibition at 1 µM [3] | inhibition at 1 µM [4] | inhibition at 1 µM [5] | inhibition at 1 µM [6] | inhibition at 10 µM [7] | inhibition at 10 µM ([8]; 10 μM compound, LPS, 24 hours) | % inhibition against c-Src [1] | % inhibition against Hck [2] | % inhibition against Fgr [3] | % inhibition against Lyn [4] | % inhibition against DDR1 [5] | % inhibition against DDR2 [6] | inhibition at 10 µM ([8]; 24 h)
1 | Oc1cccc(Nc2ncnc3cc(-c4ccccc4)sc23)c1 [LCB 03-0008, 3-(6-phenylthieno[3,2-d]pyrimidin-4-ylamino)phenol] | > 70% | > 70% | > 70% | > 70% | > 70% | > 70% | 67% | 87% | – | – | – | – | – | – | –
2 | Oc1cccc(Nc2ncnc3cc(Br)sc23)c1 [LCB 03-0015, 3-(6-Bromo-thieno[3,2-d]pyrimidin-4-ylamino)-phenol] | > 60% | > 60% | > 60% | > 60% | > 20% | > 20% | 71% | – | – | – | – | – | – | – | –
3 | COc1ccc(-c2cc3ncnc(Nc4cccc(O)c4)c3s2)cc1 [LCB 03-0017, 3-[6-(4-Methoxy-phenyl)-thieno[3,2-d]pyrimidin-4-ylamino]-phenol] | > 60% | > 60% | > 60% | > 60% | > 70% | > 70% | – | 82% | – | – | – | – | – | – | –
4 | COc1cccc(Nc2ncnc3cc(-c4ccc(OCCN5CCOCC5)cc4)sc23)c1 [LCB 03-0018, N-(3-methoxyphenyl)-6-(4-(2-morpholinoethoxy)phenyl)thieno[3,2-d]pyrimidin-4-amine] | > 70% | > 70% | > 70% | > 70% | > 70% | > 70% | 68% | 89% | – | – | – | – | – | – | –
5 | COc1cccc(Nc2ncnc3cc(-c4cccs4)sc23)c1 [LCB 03-0030, (3-Methoxyphenyl)-(6-thiophene-2-yl-thieno[3,2-d]pyrimidin-4-yl)-amine] | – | – | – | – | – | – | 80% | 96% | >40% | >30% | >30% | >40% | >70% | >70% | –
6 | Oc1cccc(Nc2ncnc3cc(-c4ccco4)sc23)c1 [LCB 03-0038, 3-(6-(furan-2-yl)thieno[3,2-d]pyrimidin-4-ylamino)phenol] | > 60% | > 50% | > 50% | > 60% | > 70% | > 70% | 85% | 88% | – | – | – | – | – | – | –
7 | Oc1cccc(Nc2ncnc3cc(-c4ccoc4)sc23)c1 [LCB 03-0039, 3-(6-(furan-3-yl)thieno[3,2-d]pyrimidin-4-ylamino)phenol] | > 50% | > 50% | > 50% | > 50% | > 70% | > 70% | 80% | 80% | – | – | – | – | – | – | –
8 | Oc1cccc(Nc2ncnc3cc(-c4ccc(CCN5CCCC5)cc4)sc23)c1 [LCB 03-0043] | > 30% | > 30% | > 30% | > 30% | > 80% | > 80% | – | 66% | – | – | – | – | – | – | –
9 | CN1CCN(C(=O)Cc2ccc(-c3cc4ncnc(Nc5cccc(O)c5)c4s3)cc2)CC1 [LCB 03-0047, 2-(4-(4-(3-hydroxyphenylamino)thieno[3,2-d]pyrimidin-6-yl)phenyl)-1-(4-methylpiperazin-1-yl)ethanone] | > 30% | > 30% | > 30% | > 20% | > 70% | > 70% | – | – | – | – | – | – | – | – | 56%
10 | O=C(Cc1ccc(-c2cc3ncnc(Nc4cccc(O)c4)c3s2)cc1)N1CCCC1 [LCB 03-0049, 2-(4-(4-(3-hydroxyphenylamino)thieno[3,2-d]pyrimidin-6-yl)phenyl)-1-(pyrrolidin-1-yl)ethanone] | > 40% | > 40% | > 40% | > 40% | > 80% | > 80% | 57% | 88% | – | – | – | – | – | – | –
11 | O=C(c1cccc(-c2cc3ncnc(Nc4cccc(O)c4)c3s2)c1)N1CCCC1 [LCB 03-0053, (3-(4-(3-hydroxyphenylamino)thieno[3,2-d]pyrimidin-6-yl)phenyl)(pyrrolidin-1-yl)methanone] | > 70% | > 70% | > 70% | > 70% | > 80% | > 80% | 83% | 94% | – | – | – | – | – | – | –
12 | CCN(CC)C(=O)c1cccc(-c2cc3ncnc(Nc4cccc(O)c4)c3s2)c1 [LCB 03-0054, N,N-diethyl-3-(4-(3-hydroxyphenylamino)thieno[3,2-d]pyrimidin-6-yl)benzamide] | > 60% | > 60% | > 60% | > 50% | > 80% | > 80% | 77% | 92% | – | – | – | – | – | – | –
13 | CCOCc1ccc(-c2cc3ncnc(Nc4cccc(O)c4)c3s2)cc1 [LCB 03-0073, 3-(6-(4-(ethoxymethyl)phenyl)thieno[3,2-d]pyrimidin-4-ylamino)phenol] | > 30% | > 30% | > 30% | > 30% | > 80% | > 80% | – | 85% | – | – | – | – | – | – | –
14 | Oc1cccc(Nc2ncnc3cc(-c4ccc(N5CCOCC5)cc4)sc23)c1 [LCB 03-0082, 3-(6-(4-morpholinophenyl)thieno[3,2-d]pyrimidin-4-ylamino)phenol] | > 70% | > 70% | > 70% | > 70% | – | – | 77% | 90% | – | – | – | – | – | – | –
15 | CN1CCN(Cc2csc(-c3cc4ncnc(Nc5cccc(O)c5)c4s3)c2)CC1 [LCB 03-0102, 3-(6-(4-((4-methylpiperazin-1-yl)methyl)thiophene-2-yl)thieno[3,2-d]pyrimidin-4-ylamino)phenol] | > 60% | > 60% | > 60% | > 60% | > 70% | > 70% | – | 97% | – | – | – | – | – | – | –
16 | Oc1cccc(Nc2ncnc3cc(-c4cc(CN5CCCCC5)cs4)sc23)c1 [LCB 03-0103, 3-(6-(4-(piperidin-1-ylmethyl)thiophene-2-yl)thieno[3,2-d]pyrimidin-4-ylamino)phenol] | > 50% | > 50% | > 50% | > 50% | > 70% | > 70% | – | – | – | – | – | – | – | – | –
17 | Oc1cccc(Nc2ncnc3cc(-c4cc(CN5CCOCC5)cs4)sc23)c1 [LCB 03-0104, 3-(6-(4-(morpholinomethyl)thiophene-2-yl)thieno[3,2-d]pyrimidin-4-ylamino)phenol] | > 50% | > 50% | > 50% | > 50% | > 80% | > 80% | – | – | – | – | – | – | – | – | –
18 | Oc1cccc(Nc2ncnc3cc(-c4cc(CN5CCNCC5)cs4)sc23)c1 [LCB 03-0105, 3-(6-(4-(piperazin-1-ylmethyl)thiophene-2-yl)thieno[3,2-d]pyrimidin-4-ylamino)phenol] | > 50% | > 50% | > 50% | > 50% | > 70% | > 70% | – | – | – | – | – | – | – | – | –
19 | CCNCc1csc(-c2cc3ncnc(Nc4cccc(O)c4)c3s2)c1 [LCB 03-0106, 3-(6-(4-((ethylamino)methyl)thiophene-2-yl)thieno[3,2-d]pyrimidin-4-ylamino)phenol] | > 70% | > 70% | > 70% | > 70% | > 70% | > 70% | 63% | – | – | – | – | – | – | – | –
20 | Oc1cccc(Nc2ncnc3cc(-c4cc(CN5CCCC5)co4)sc23)c1 [LCB 03-0113, 3-(6-(4-(pyrrolidin-1-ylmethyl)furan-2-yl)thieno[3,2-d]pyrimidin-4-ylamino)phenol] | > 50% | > 50% | > 50% | > 50% | > 70% | > 70% | – | – | – | – | – | – | – | – | –
21 | CN1CCN(Cc2coc(-c3cc4ncnc(Nc5cccc(O)c5)c4s3)c2)CC1 [LCB 03-0114, 3-(6-(4-((4-methylpiperazin-1-yl)methyl)furan-2-yl)thieno[3,2-d]pyrimidin-4-ylamino)phenol] | > 50% | > 50% | > 50% | > 50% | > 70% | > 70% | – | – | – | – | – | – | – | – | –
22 | Oc1cccc(Nc2ncnc3cc(-c4cc(CN5CCCCC5)co4)sc23)c1 [LCB 03-0115, 3-(6-(4-(piperidin-1-ylmethyl)furan-2-yl)thieno[3,2-d]pyrimidin-4-ylamino)phenol] | > 50% | > 50% | > 50% | > 50% | > 70% | > 70% | – | – | – | – | – | – | – | – | –
